Row | Structure (SMILES) | melting point [°C]
1 | Nc1nc(NCCC2CCC3(CC2)OCCO3)nc2c1ncn2C1OC(CO)C(O)C1O (stereo not drawn) | 133 to 137
2 | Cc1ccc2c(c1C)OC(C)C(NNc1ncnc3c1ncn3C1OC(CO)C(O)C1O)C2 (stereo not drawn) | 109 to 113
3 | Cc1ccccc1COC1COC(CCl)OC1 (stereo not drawn) | 62 to 63
4 | CC(C)(Cn1c(N)nc2c(N)nc3ccccc3c21)NS(C)(=O)=O | > 230
5 | CC(C)(O)C#Cc1cccc(N)c1 | 118 to 119
6 | COc1cc(NCCCO)c([N+](=O)[O-])cc1O | 144
7 | OCCCc1cc2c(cc1O)CCO2 | 103 to 104
8 | Cc1ccc(C(O)C2OC2C(C)(C)C)cc1 (stereo not drawn) | 36 to 39
9 | NCCc1c[nH]c2cc3c(cc12)C(=O)NCC3 | 82 to 86
10 | CC1CCN(CCNc2ccnc3cc(Cl)ccc23)CC1 | 154 to 156
11 | Cc1nc2c(O)c(CCC(=O)c3cccs3)c(C(=O)N(C)C)cn2c1C | 234
12 | CCCCN(Cc1ccc(-c2ccccc2-c2nnnn2C(c2ccccc2)(c2ccccc2)c2ccccc2)cc1)c1nc(C)cc(C)n1 | 131 to 133
13 | CCCc1nn(C)c2c(=O)[nH]c(-c3cc(S(=O)(=O)N4CCN(C)CC4)ccc3O)nc12 | 283 to 284
14 | Nc1ccc(OCC(COc2ccc(N)cc2)(COc2ccc(N)cc2)COc2ccc(N)cc2)cc1 | 210 to 211
15 | COc1ccc(N(Cc2cc(C(C)(C)C)c(O)c(C(C)(C)C)c2)S(=O)(=O)c2cccs2)cn1 | 96 to 97
16 | Cc1cc2c(nc1C(O)c1cccnc1)CCCCC2 (stereo not drawn) | 124 to 126
17 | CC(C)N1CCC(Nc2cccnc2)CC1 | 101
18 | CCOC(=O)c1ncn(-c2nncs2)c1S(=O)(=O)NC(=O)Nc1nc(OC)cc(OC)n1 | 169 to 171
19 | OCC(O)(CO)c1ccc(F)cc1F | 58 to 59
20 | N#CCc1cc2cc(Br)ccc2s1 | 94 to 96
21 | Oc1cccc2c1CCCC2N1CCCC1 (stereo not drawn) | 151 to 153

Row | Structure (SMILES) | melting point [°C]
22 | CN1C2CCC1CC(O)(c1ccc(Cl)cc1)C2 (stereo not drawn) | 186 to 187
23 | COc1cc2ncnc(N3CCCc4cc(C)ccc43)c2cc1OC | 147 to 148
24 | COC(=O)c1cccc2nc(SCCCN3CCN(CC(=O)Nc4c(SC)cc(C)nc4SC)CC3)oc12 | 76 to 79
25 | C=C(C)c1c2c(c(C)c(C)c1N1CCN(c3ccc(OC)cc3)CC1)OC(C)(C)C2 | 174 to 175
26 | CCOC(=O)c1cn(C2CC2)c2cc(-c3cc(C(F)(F)F)nc(C(F)(F)F)c3)c(F)cc2c1=O | 239 to 241
27 | CCc1[nH]n(C2CCCC2)c2nc(-c3ccc4c(c3)CCO4)nc(=O)c1-2 | 253 to 254
28 | Cc1c(C)c2c(c(C)c1NC(=O)CC(C)(C)C)C(c1ccc(F)cc1)C(C)(C)O2 (stereo not drawn) | 194 to 195
29 | CC1CCNc2nc3ccc([N+](=O)[O-])cc3n21 (stereo not drawn) | 172 to 178
30 | COc1ccc2c(Cc3c(Cl)cncc3Cl)nnc(-n3cncn3)c2c1 | 207 to 208
31 | COC(=O)C[C@H](O)C[C@H](O)C=Cc1c(-c2ccc(F)cc2)c(-c2ccc(F)cc2)c(C(=O)Nc2ccc(S(N)(=O)=O)cc2)n1C(C)C | 208 to 210
32 | CCOC(=O)c1nc2ccc(OC)cc2nc1SCC | 70
33 | CCOC(=O)c1cnc2cc(F)c(F)cc2c1Cl | 111
34 | COc1nc(OC)nc(C2(c3nc(OC)nc(OC)n3)OC(=O)c3c(Cl)cccc32)n1 | 126 to 127
35 | CCn1c(CCO)nc(C2CC2)c1Sc1cc(C#N)cc(C#N)c1 | 122 to 124
36 | O=C1C(=O)c2ccccc2C2=C1SCC1(CCN(S(=O)(=O)c3cccc(Cl)c3)CC1)O2 | 255 to 256
37 | CCCCCCCCCCc1c(C(=O)O)sc2c1sc1c(CCCCCCCCCC)c(C(=O)O)sc12 | 280
38 | CC1(C=O)COC2(CCCCCCCCCCC2)OO1 (stereo not drawn) | 88 to 89
39 | Cn1cnc2nc(-c3ccc(C(F)(F)F)cc3)nn2c1=S | 270 to 272
40 | N#CCCSCc1nccc(N)n1 | 106 to 109
41 | Cc1nc2c(OCc3c(Cl)ccc([N+](=O)[O-])c3Cl)cccn2c1Br | 217 to 219

Other lines, results leading:

Row | melting point [°C] | Structure (SMILES)
42 | 131 to 132 | CCCCCCCCNC(=O)C=CSC(C(=O)c1ccccc1)C(=O)c1cccn1C (stereo not drawn)
43 | 150 to 151 | COc1ccc(N/C=C2\C(=O)NC(=O)c3ccccc32)cc1
44 | 113 to 140 | NS(=O)(=O)c1ccccc1S
45 | 88 to 90 | CCOC(=O)C(=O)CC(=O)c1cn(CCCCc2ccccc2)c2ccccc2c1=O
46 | 256 to 257 | CC1(c2ccccc2)C(=O)Nc2cc(Br)cc(Br)c2C1=O (stereo not drawn)
47 | 193 | COc1ccc(-c2ccncc2OC2SCC(OC(C)=O)C(OC(C)=O)C2OC(C)=O)cc1 (stereo not drawn)
48 | 187 to 189 | OCc1ccc2ccc3c4ccccc4ccc3c2c1
49 | 191 to 195 | CC1(C)CC(NC(=O)C(=O)NNC(=O)COc2ccc(C(=O)c3ccccc3)c(O)c2)CC(C)(C)N1
50 | 85 to 86 | COc1ccc(COc2c(C)c(C)c3c(c2C)CC2(CCN(Cc4ccccc4)CC2)O3)cc1
51 | 205 | Nc1nccc(Oc2ccc3c(C(=O)Nc4ccc(F)c(C(F)(F)F)c4)cccc3c2)n1
52 | 155 to 157 | CC(C)(C(=O)O)c1nnc2ccc(NCCCN3CCC(OC(c4ccccc4)c4ccccc4)CC3)nn12
53 | 168 to 171 | CN1C(=O)C(c2c[nH]c3ccccc23)=C(c2cn(C)c3ccccc23)C1=O
54 | 165 to 166 | C=C(C)C(=O)Oc1ccc(S(=O)(=O)ON=C(C#N)c2cccs2)cc1
55 | 69 to 70 | COc1ccccc1C=Cc1ccccc1
56 | 200 to 202 | O=C1N(c2ccccc2Br)Cc2cnc(Nc3ccccc3)nc2N1CC1CCCCC1
57 | 126 to 128 | Fc1ccc(OCCCN2CCN(c3ncc4ccccc4n3)CC2)cc1
58 | 164 | CCOC(=O)CC(=Cn1cc[nH]c1=O)c1ccc(OC)c(OC2CCCC2)c1
59 | > 300 | Nc1scc2c(C(=O)O)nn(-c3ccc(Cl)cc3)c(=O)c12
60 | 172 to 175 | COC(=O)Nc1nc2ccc(Sc3ccccc3)cn2c1CN(C)C

Row | melting point [°C] | Structure (SMILES)
61 | 188 | O=C1NC(=O)C(=Cc2ccc(OCC3CN(c4ccccn4)CCO3)cc2)S1 (stereo not drawn)
62 | 128 to 130 | CC(C)Oc1ccccc1-c1ccoc1C(=O)NNC(=O)c1ccc(O)c(C#N)c1
63 | 81 | CCOC(=O)[C@H](CSC(=O)c1ccccc1)NC(=O)c1ccccc1
64 | 50 to 52 | O=C(O)C(=O)c1ccc(OCCCOc2ccccc2)cc1
65 | 185 to 186 | COc1cc2c(cc1C#N)C1(CO2)C(=O)Nc2ccccc21 (stereo not drawn)
66 | 56 to 61 | CC1(C)C(=NOCc2ccccc2)C(c2ccc(S(C)(=O)=O)cc2)=C1c1ccccc1
67 | 75 | COC(=O)c1ccc(SCc2c(O[C@H](Cn3ccnc3)c3ccccc3)ccc3c2CCCC3=O)cc1
68 | 183 to 184 | CNC(=O)C(=NO)c1ccccc1Oc1ccccc1
69 | 139 to 140 | Cc1oc(-c2ccccc2)nc1COc1ccc2cc(CCCc3nnn[nH]3)oc2c1
70 | 163 to 165 | COC(=O)c1ccc(NC(=O)NCCCl)cc1
71 | 100 to 102 | CC(O)(CSc1ccc(S(=O)(=O)c2ccccc2)cc1)C(F)(F)F (stereo not drawn)
72 | 220 to 221 | CCC(C)CNC(=O)c1ccc2cccc(Cc3ccc(C(=O)O)cc3OC)c2c1 (stereo not drawn)
73 | 148 to 150 | COc1ccc(/C=C/C(=O)Nc2ccccc2C(=O)OCC(=O)NCC(C)(C)S)cc1OC
74 | 108 to 110 | O=C1NC(=O)c2cc(Nc3ccccc3I)c(Nc3ccccc3I)cc21
75 | 94 to 103 | CC(C)(C)NC(=O)[C@@H]1CCCN1C(=O)[C@@H](O)[C@H](Cc1ccccc1)NC(=O)[C@H](CC(N)=O)NC(=O)COC1CCN(Cc2ccccc2)CC1
76 | 136 | CCCc1ccc(S(=O)(=O)Nc2ccc3nc(C)cnc3c2)cc1
77 | 265 to 266 | O=C(O)c1sc2ccc(Br)cc2c1-c1ccccc1
78 | 174 to 175 | CC(=O)c1cccc(NC(=O)CCCC(=O)Nc2cccc(C(C)=O)c2)c1
79 | 127 to 129 | CCCc1c(C(=O)OCC)nc2ccccc2c1OCc1ccccc1

Row | melting point [°C] | Structure (SMILES)
80 | 153 | O=c1cc(-c2ccc(OCc3ccccc3)c(OCc3ccccc3)c2)oc2cc(OCCCCl)ccc12
81 | > 300 | O=c1cc(C2CCc3ccccc3C2)[nH]c2ccccc12 (racemic)
82 | 127 | COc1ccc([C@]2(C)C=Cc3cc(OC)ccc3[C@H]2C=O)cc1 (relative stereo)
83 | 243 to 244 | CC1=NC(NC(=O)Nc2cccc(C)c2)C(=O)N(CC(=O)NC(C)(C)C)c2c(C)cccc21 (stereo not drawn)
84 | 109 to 112 | Cc1ccccc1OCC(O)CN(CCOc1ncccc1C(N)=O)Cc1ccccc1 (stereo not drawn)
85 | 249 to 254 | COCc1ccc(-c2csc(-c3ccncc3)n2)c(=O)[nH]1
86 | 142 to 144 | CC(C)N1CCC(CNc2ccc(F)cc2C(=O)Nc2ccc(Cl)cn2)CC1
87 | 252 to 253 | CN1CCC(N2C(=O)Nc3ccccc3C2c2ccccc2)CC1 (stereo not drawn)
88 | 121 to 124 | N#CC(Cc1c[nH]cn1)(c1ccccc1)c1ccc(Br)cc1 (stereo not drawn)
89 | 180 to 182 | Cn1ccc2cc(N3Cc4ccc(OC(F)F)cc4C3=O)ccc21
90 | 98 to 99 | Fc1ccc(C(c2ccccc2Cl)N2CCN(CCCOC(c3ccccc3)c3ccccc3)CC2)cc1 (stereo not drawn)
91 | 183 to 184 | CCCc1nc2c(N)nc3ccccc3c2n1CCCCNC(=O)Nc1ccccc1
92 | 247 to 248 | CCOC(=O)c1sc(Oc2cccnc2)c2c1CCc1cnn(C)c1-2
93 | 139 to 140 | COc1ccc(N)c(OCC(N)=O)c1
94 | 131 to 132 | COc1cccc(O[C@@H]2COc3ccc(-c4ccc5cc(F)ccc5n4)cc3[C@@H]2O)c1 (relative stereo)
95 | 191 to 192 | Cc1c(-c2ccccc2)oc2c(CC(=O)O)cccc2c1=O
96 | 65 to 67 | COCCOC(=O)CS(=O)C(C)c1ccc(-c2ccccc2F)cc1 (stereo not drawn)
97 | 184 to 185 | O=C(O)COc1cc(Cl)ccc1C(=O)NCc1ccc(OC(F)(F)F)cc1
98 | 226 to 230 | COc1cc(F)c2c(c1)Oc1ccccc1S2(=O)=O

Reference: a melting point compilation (Tetko et al.; mined from patent text by program, amines drawn as free bases though some values may be those of a salt)
